Assays:
[1] = molecular target: T1, Full length DGKζ (in-house protein M1-V929) (Homo sapiens, UniProt Q13574); experiment: Biochemical DGK IC50 assay (ADP-Glo, lipid micelle substrate), DGKζ; details: 1 hour preincubation, 1 hour reaction, room temperature
T1 construct: His (N); TEV site (N); made in house; host or cells: Sf9 insect cells (Bac-to-Bac baculovirus)
In short: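 Enzyme: full-length human DGKζ M1-V929, produced in baculovirus-infected Sf9 cells; substrate DAG/PS micelles. Buffer 50 mM HEPES, 10 mM MgCl2, 0.01 mM CaCl2, 0.1 mM Na3VO4.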

[2] = molecular target: T2, Full length DGKα (D21-10BG, SignalChem) (Homo sapiens, UniProt P23743); experiment: Biochemical DGK IC50 assay (ADP-Glo, lipid micelle substrate), DGKα; details: 1 hour preincubation, 1 hour reaction, room temperature
T2 construct: Full length DGKα (D21-10BG, SignalChem); purchased SignalChem D21-10BG
T2 sequence (P23743 whole entry): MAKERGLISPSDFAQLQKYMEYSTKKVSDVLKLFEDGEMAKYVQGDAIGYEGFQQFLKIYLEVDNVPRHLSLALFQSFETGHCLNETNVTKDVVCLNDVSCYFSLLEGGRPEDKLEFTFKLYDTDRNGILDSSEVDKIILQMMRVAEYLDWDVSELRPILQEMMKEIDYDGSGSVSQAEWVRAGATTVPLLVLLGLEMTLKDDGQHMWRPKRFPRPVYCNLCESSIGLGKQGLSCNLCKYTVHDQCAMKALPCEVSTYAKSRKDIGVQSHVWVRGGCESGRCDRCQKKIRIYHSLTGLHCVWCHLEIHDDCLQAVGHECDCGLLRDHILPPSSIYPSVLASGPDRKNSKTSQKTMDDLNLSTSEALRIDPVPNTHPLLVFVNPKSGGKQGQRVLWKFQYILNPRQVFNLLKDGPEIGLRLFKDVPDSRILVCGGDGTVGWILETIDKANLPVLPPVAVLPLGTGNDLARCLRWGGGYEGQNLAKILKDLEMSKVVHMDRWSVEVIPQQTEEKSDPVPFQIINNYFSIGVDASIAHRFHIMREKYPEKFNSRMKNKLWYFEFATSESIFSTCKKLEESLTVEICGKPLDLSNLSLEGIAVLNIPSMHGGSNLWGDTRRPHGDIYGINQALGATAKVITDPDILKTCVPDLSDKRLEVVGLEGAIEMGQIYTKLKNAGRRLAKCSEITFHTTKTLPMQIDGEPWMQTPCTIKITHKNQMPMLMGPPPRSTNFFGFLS
In short: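 ADP-Glo luminescence quantified ADP produced after a 1 h room-temperature reaction of full-length DGKα on DAG/PS micelles, in HEPES buffer containing MgCl2, CaCl2, vanadate, BSA and Tween-20. IC50 values derive from activity inhibition over a compound concentration series.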

T1 sequence (Q13574 1-929 isoform Q13574-4): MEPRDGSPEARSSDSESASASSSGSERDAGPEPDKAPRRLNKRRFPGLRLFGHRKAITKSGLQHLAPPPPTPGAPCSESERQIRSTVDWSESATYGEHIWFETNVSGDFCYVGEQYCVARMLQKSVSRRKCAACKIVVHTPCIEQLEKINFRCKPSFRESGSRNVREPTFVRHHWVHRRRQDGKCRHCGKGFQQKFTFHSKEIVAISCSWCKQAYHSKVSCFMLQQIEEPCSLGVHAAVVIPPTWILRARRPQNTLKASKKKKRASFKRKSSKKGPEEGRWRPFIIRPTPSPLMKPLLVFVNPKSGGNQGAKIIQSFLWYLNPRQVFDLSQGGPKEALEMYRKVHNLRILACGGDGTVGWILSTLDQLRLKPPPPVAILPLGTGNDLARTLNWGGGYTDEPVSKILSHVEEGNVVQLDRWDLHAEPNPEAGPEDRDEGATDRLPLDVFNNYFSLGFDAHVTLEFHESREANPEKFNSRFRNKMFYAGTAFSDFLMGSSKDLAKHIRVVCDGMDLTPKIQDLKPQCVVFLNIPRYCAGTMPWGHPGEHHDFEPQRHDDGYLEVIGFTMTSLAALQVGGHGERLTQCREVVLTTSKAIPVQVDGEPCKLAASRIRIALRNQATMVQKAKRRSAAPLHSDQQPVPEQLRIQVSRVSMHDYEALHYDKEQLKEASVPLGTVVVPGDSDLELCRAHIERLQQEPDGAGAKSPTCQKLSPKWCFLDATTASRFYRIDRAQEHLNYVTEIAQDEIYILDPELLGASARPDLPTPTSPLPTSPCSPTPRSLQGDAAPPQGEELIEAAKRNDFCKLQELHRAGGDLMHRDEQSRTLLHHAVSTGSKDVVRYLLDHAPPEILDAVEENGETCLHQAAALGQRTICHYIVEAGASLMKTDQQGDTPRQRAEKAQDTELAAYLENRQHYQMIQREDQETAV

IC50 [1] [nM] | IC50 [2] [nM] | SMILES
19 | 23600 | CC(c1ccc2c(c1)OCCO2)N1C[C@H](C)N(c2c(F)c(=O)n(C)c3c2nc(CC#N)n3C)C[C@H]1C (single isomer, unassigned) [Compound A18a]
265 | 22300 | CC[C@H]1CN(C(C)c2ccc3ncc(C)nc3c2)[C@H](CC)CN1c1nc(=O)n(C)c2c1nc(CC#N)n2C (single isomer, unassigned) [Compound A51b]
42 | 61900 | CCn1c(CC#N)nc2c(N3C[C@@H](C)N(C(C)c4cccc(C(F)(F)F)c4)C[C@@H]3C)nc(=O)n(C)c21 (mixture of isomers) [Compound A42, 2-(6-((2S,5R)-2,5-dimethyl-4-(1-(3-(trifluoromethyl)phenyl)ethyl)piperazin-1-yl)-9-ethyl-3-methyl-2-oxo-3,9-dihydro-2H-purin-8-yl)acetonitrile]
331 | > 150000 | CCn1c(CC#N)nc2c(N3C[C@@H](C)N(C(C)c4nc5c(cc4Cl)OCC(C)(C)O5)C[C@@H]3C)nc(=O)n(C)c21 (stereo partly drawn) [Compound A160, 2-(6-((2S,5R)-4-(1-(7-chloro-3,3-dimethyl-2,3-dihydro-[1,4]dioxino[2,3-b]pyridin-6-yl)ethyl)-2,5-dimethylpiperazin-1-yl)-9-ethyl-3-methyl-2-oxo-3,9-dihydro-2H-purin-8-yl)acetonitrile]
33 | 122000 | CC[C@@H]1CN(c2nc(=O)n(C)c3c2nc(CC#N)n3CC)[C@@H](C)CN1C(C)c1ccc2c(n1)OC(C)(C)CO2 (mixture of isomers) [Compound A158, 2-(6-((2S,5R)-4-(1-(3,3-dimethyl-2,3-dihydro-[1,4]dioxino[2,3-b]pyridin-6-yl)ethyl)-5-ethyl-2-methylpiperazin-1-yl)-9-ethyl-3-methyl-2-oxo-3,9-dihydro-2H-purin-8-yl)acetonitrile]
24 | 60300 | CCn1c(=O)nc(N2C[C@@H](C)N(C(C)c3ccc4ncc(C)nc4c3)C[C@@H]2C)c2nc(CC#N)n(C)c21 (single isomer, unassigned) [Compound A53a]
18 | 128000 | [2H]C([2H])([2H])n1c(CC#N)nc2c(N3C[C@@H](C)N(C(C)c4ccc(F)cc4C(F)(F)F)C[C@@H]3C)nc(=O)n(C)c21 (stereo partly drawn) [Compound A37, 2-(6-((2S,5R)-4-(1-(4-fluoro-2-(trifluoromethyl)phenyl)ethyl)-2,5-dimethylpiperazin-1-yl)-3-methyl-9-(methyl-d3)-2-oxo-3,9-dihydro-2H-purin-8-yl)acetonitrile]
3 | 96900 | COC(C)c1cc(F)ccc1C(C)N1C[C@H](C)N(c2nc(=O)n(C)c3c2nc(CC#N)n3C)C[C@H]1C (stereo partly drawn) [Compound A28, 2-(6-((2S,5R)-4-(1-(4-fluoro-2-(1-methoxyethyl)phenyl)ethyl)-2,5-dimethylpiperazin-1-yl)-3,9-dimethyl-2-oxo-3,9-dihydro-2H-purin-8-yl)acetonitrile]
24 | 78700 | CCn1c(CC#N)nc2c(N3C[C@@H](C)N(C(C)c4cccc(C(F)(F)F)c4)C[C@@H]3C)nc(=O)n(C)c21 (single isomer, unassigned) [Compound A42a]
40 | > 150000 | CCn1c(CC#N)nc2c(N3C[C@@H](C)N(C(C)c4ccc5c(c4)C(=O)N(C)C5=O)C[C@@H]3C)nc(=O)n(C)c21 (stereo partly drawn) [Compound A83, 2-(6-((2S,5R)-2,5-dimethyl-4-(1-(2-methyl-1,3-dioxoisoindolin-5-yl)ethyl)piperazin-1-yl)-9-ethyl-3-methyl-2-oxo-3,9-dihydro-2H-purin-8-yl)acetonitrile]
291 | 37200 | CCn1c(CC#N)nc2c(N3C[C@@H](C)N(C(C)c4ccc5c(c4F)OC(C)(C)O5)C[C@@H]3C)nc(=O)n(C)c21 (single isomer, unassigned) [Compound A175a]
165 | 143000 | CCn1c(CC#N)nc2c(N3C[C@@H](C)N(C(C)c4cc(F)cc(C(F)F)c4)C[C@@H]3C)nc(=O)n(C)c21 (stereo partly drawn) [Compound A38, 2-(6-((2S,5R)-4-(1-(3-(difluoromethyl)-5-fluorophenyl)ethyl)-2,5-dimethylpiperazin-1-yl)-9-ethyl-3-methyl-2-oxo-3,9-dihydro-2H-purin-8-yl)acetonitrile]
88 | 616 | Cc1ccc(C(C)N2C[C@H](C)N(c3cc(=O)n(C)c4c3nc(CC#N)n4C)C[C@H]2C)cc1 (single isomer, unassigned) [Compound A5b]
262 | > 10000 | CC(c1ccc(F)cc1C(F)(F)F)N1C[C@H](C)N(c2cc(=O)n(C)c3[nH]c(CC#N)nc23)C[C@H]1C (stereo partly drawn) [Compound A9, 2-(7-((2S,5R)-4-(1-(4-fluoro-2-(trifluoromethyl)phenyl)ethyl)-2,5-dimethylpiperazin-1-yl)-4-methyl-5-oxo-4,5-dihydro-3H-imidazo[4,5-b]pyridin-2-yl)acetonitrile]
1030 | 51200 | CCn1c(CC#N)nc2c(N3C[C@@H](C)N(C(C)c4cc5c(cc4F)OC(C)(C)O5)C[C@@H]3C)nc(=O)n(C)c21 (single isomer, unassigned) [Compound A174a]
7 | 4080 | CC(c1ccc2nccnc2c1)N1C[C@H](C)N(c2cc(=O)n(C)c3sc(CC#N)nc23)C[C@H]1C (mixture of isomers) [Compound A194, 2-(7-((2S,5R)-2,5-dimethyl-4-(1-(quinoxalin-6-yl)ethyl)piperazin-1-yl)-4-methyl-5-oxo-4,5-dihydrothiazolo[5,4-b]pyridin-2-yl)acetonitrile]
217 | 15800 | CC[C@@H]1CN(c2nc(=O)n(CC)c3c2nc(CC#N)n3C)[C@@H](C)CN1C(C)c1ccc2c(c1)OC(C)(C)CO2 (single isomer, unassigned) [Compound A66a]
5 | 11600 | CC(c1ccc2c(c1)OC(C)(C)O2)N1C[C@H](C)N(c2nc(=O)n(C)c3c2nc(CC#N)n3C)C[C@H]1C (stereo partly drawn) [Compound A98, 2-(6-((2S,5R)-4-(1-(2,2-dimethylbenzo[d][1,3]dioxol-5-yl)ethyl)-2,5-dimethylpiperazin-1-yl)-3,9-dimethyl-2-oxo-3,9-dihydro-2H-purin-8-yl)acetonitrile]
3 | 14000 | CC[C@H]1CN(C(C)c2ccc3ncc(C)nc3c2)[C@H](CC)CN1c1nc(=O)n(C)c2c1nc(CC#N)n2C (single isomer, unassigned) [Compound A51a]
78 | 40900 | CCn1c(CC#N)nc2c(N3C[C@@H](C)N(C(C)c4ccc5c(=O)cc(C)oc5c4)C[C@@H]3C)nc(=O)n(C)c21 (stereo partly drawn) [Compound A191, 2-(6-((2S,5R)-2,5-dimethyl-4-(1-(2-methyl-4-oxo-4H-chromen-7-yl)ethyl)piperazin-1-yl)-9-ethyl-3-methyl-2-oxo-3,9-dihydro-2H-purin-8-yl)acetonitrile]
35 | 123000 | Cc1cnc2ccc(C(C)N3C[C@H](C)N(c4nc(=O)n(C)c5c4nc(CC#N)n5C)C[C@H]3C)cc2n1 (stereo partly drawn) [Compound A49, 2-(6-((2S,5R)-2,5-dimethyl-4-(1-(3-methylquinoxalin-6-yl)ethyl)piperazin-1-yl)-3,9-dimethyl-2-oxo-3,9-dihydro-2H-purin-8-yl)acetonitrile]
262 | 19700 | CC(c1ccc2c(c1)OC(C)(C)O2)N1C[C@H](C)N(c2nc(=O)n(C)c3c2nc(CC#N)n3C)C[C@H]1C (single isomer, unassigned) [Compound A98b]
873 | 7020 | CC(c1ccc2nccnc2c1)N1C[C@H](C)N(c2cc(=O)n(C)c3sc(CC#N)nc23)C[C@H]1C (single isomer, unassigned) [Compound A194b]
455 | 78200 | CCn1c(CC#N)nc2c(N3C[C@@H](C)N(C(C)c4ccc5c(c4)OC4(CCC4)O5)C[C@@H]3C)nc(=O)n(C)c21 (single isomer, unassigned) [Compound A169b]
11 | 51100 | CCn1c(CC#N)nc2c(N3C[C@@H](C)N(C(C)c4ccc5c(c4)OC(C)(C)C5)C[C@@H]3C)nc(=O)n(C)c21 (stereo partly drawn) [Compound A97, 2-(6-((2S,5R)-4-(1-(2,2-dimethyl-2,3-dihydrobenzofuran-6-yl)ethyl)-2,5-dimethylpiperazin-1-yl)-9-ethyl-3-methyl-2-oxo-3,9-dihydro-2H-purin-8-yl)acetonitrile]
52 | > 150000 | CCn1c(CC#N)nc2c(N3C[C@@H](C)N(C(C)c4ccnc5c4OCCC5(F)F)C[C@@H]3C)nc(=O)n(C)c21 (single isomer, unassigned) [Compound A103b]
496 | 68600 | CCn1c(CC#N)nc2c(N3C[C@@H](C)N(C(C)c4cc5c(cc4F)OC(C)(C)CO5)C[C@@H]3C)nc(=O)n(C)c21 (single isomer, unassigned) [Compound A156a]
25 | 27400 | CC[C@@H]1CN(c2nc(=O)n(C)c3c2nc(CC#N)n3C)[C@@H](C)CN1C(C)c1ccc2c(n1)OC(C)(C)CO2 (single isomer, unassigned) [Compound A159a]
90 | 19000 | CC(c1ccc2c(c1)OC(F)(F)O2)N1C[C@H](C)N(c2nc(=O)n(C)c3c2nc(CC#N)n3C)C[C@H]1C (stereo partly drawn) [Compound A167, 2-(6-((2S,5R)-4-(1-(2,2-difluorobenzo[d][1,3]dioxol-5-yl)ethyl)-2,5-dimethylpiperazin-1-yl)-3,9-dimethvl-2-oxo-3,9-dihydro-2H-purin-8-yl)acetonitrile]
